Data from article PMC12844257, “Click Chemistry-Enabled Parallel Synthesis of N-Acyl Sulfonamides and Their Evaluation as Carbonic Anhydrase Inhibitors” (Molecules, 2026).
Values joined by “and” are separate entries in the source; they are usually repeats but may differ in a detail not shown here. Equal entries are not always repeated. Where two headings read alike, the source gives them in different places.

Experiments:
[1] = molecular target: T1, hCA-IX (catalytic domain) (Homo sapiens, UniProt Q16790); test: Thermal shift assay (TSA / differential scanning fluorimetry); format: binding; conditions: for ΔTm, median: at 40 µM compound, n = 4
hCA-II = molecular target: T2, hCA-II (Homo sapiens, UniProt P00918); test: hCA esterase activity inhibition assay (p-nitrophenyl acetate hydrolysis) with IC50 determination; format: biochemical
T2 construct: recombinant hCA-IX (catalytic domain) and hCA-II (full-length protein); made in house; host or cells: E. coli
Method: (§1) The catalytic activity of hCA-II and hCA-IX was monitored through the enzymatic hydrolysis of p-nitrophenyl acetate. […]
(§2) hCA esterase activity inhibition screening assay (with IC50 determination) The protocol was adapted from the work by Wu and co-authors.3 Briefly, the catalytic activity of human hCA-IX (catalytic domain) and hCA-II recombinant proteins was monitored by following the hydrolysis of p-nitrophenyl […]
(§3) prepared in DMSO) as a reference compound, were titrated from 200 µM to 0.01 µM at 3× serial dilutions (10-point […]
(§4) HCl, 200 mM NaCl, pH 7.5), and aliquoted into the assay-ready plates with tested compounds immediately prior to the analysis using an automated multichannel dispenser Multidrop Combi (Thermo Fischer Scientific).
(§5) The products of the hydrolysis reaction are acetate and nitrophenolate, which ionizes to give a bright yellow anion […]
(§6) The compounds were formatted into 384-well plates in the following manner. The first two columns (n = 32 wells) […]
(§7) In between, the tested compounds were placed at the defined dilution step of the 10-points concentration curve, each point of which was a quadruplicate (n = 4 wells). Thus, the […]
(§8) deviation of <0.05, were used for further assessment of each point of inhibition curves; they were not shown in the […]
(§9) performed with Labcyte Echo liquid handler to prepare assay-ready plates. Reaction was run in 25 µL of assay buffer […]
(§10) Enzymatic reactions were initiated by pipetting 5 mM stock solution of 4-nitrophenyl acetate (4-NPA) in ethanol to each well (final concentration in the reaction mixture – 0.5 mM for hCA-II and 0.9 mM for hCA-IX). The final reaction volume was 27.5 µL. The enzyme activity was evaluated by monitoring the production of colored product, 4- […]
(§11) SpectraMax M5 (Molecular Devices). The assay was performed twice for each enzyme.
(§12) Each data point of the titration curve was calculated as average of aggregate data value of four measurements per each concentration (technical replicate for each concentration n = 4). The IC50 values were calculated using GraphPad […]
(§13) for maximum inhibition of the enzyme (as described above) and apply this value for further calculation of the percent […]
(§14) Secondly, it was also titrated as one of the tested compounds to ensure that the assay is performing properly withing the given range of the known inhibitor […]
(§15) compounds in Figures S4 and S5.

[2] = molecular target: T1, hCA-IX (catalytic domain); test: as above; format: biochemical
Method: as §1, §2, §3, §4, §5, §6, §7, §8, §9, §10, §11, §12, §13, §14, §15

[3] = molecular target: hCA-II (full-length protein) (Homo sapiens, UniProt P00918); test: Thermal shift assay (TSA / differential scanning fluorimetry); conditions: for Tm: hCA-II
[4] = 200 nM hCA-II, 0.5 mM 4-NPA, 10-point curve, n = 4, read-out: IC50
[5] = 917 nM hCA-IX, 4-NPA, 10-point curve, n = 4, read-out: IC50
[6] = hCA-II, bound stated, read-out: potency (IC50)
[7] = hCA-IX, bound stated, read-out: potency (IC50)

Row | ΔTm, median [1] [°C] | Tm ([1]; screening at 20 µM) [°C] | ΔTm ([1]; screening at 20 µM) [°C] | Tm ([1]; screening at 40 µM) [°C] | IC50 (hCA-II; [4]) | IC50 [2, 5] | Tm ([3]; screening at 20 µM) [°C] | Tm ([3]; screening at 40 µM) [°C] | ΔTm at 20 µM ([3]; read-out: ΔTm) [°C] | ΔTm at 40 µM ([3]; read-out: ΔTm) [°C] | IC50 (hCA-II; [6]) [µM] | IC50 ([2]; 917 nM hCA-IX, 4-NPA, 10-point curve, n = 4, listed as 4(16,7,28), read-out: IC50) [µM] | IC50 [2, 7] [µM] | ΔTm at 40 µM ([3]; read-out: ΔTm, median) [°C] | ΔTm ([1]; screening at 40 µM) [°C] | Structure (SMILES)
1 | 1.44 | 56.91 | 1.28 | 57.51 | 6.1 µM and 6.07 µM | 23.4 µM | 54.82 | 54.73 | 0.5 | 0.21 | – | – | – | – | – | O=C(NS(=O)(=O)c1ccc(-c2cn(CC3COc4ccccc4O3)nn2)cc1)c1cnsc1 (stereo not drawn) [4{17,7,27}]
2 | 1.17 | 55.81 | 0.18 | 57.23 | 8.7 µM and 8.74 µM | 17.3 µM | 55.24 | 55.22 | 0.92 | 0.7 | – | – | – | – | – | Cc1cc(C(=O)NS(=O)(=O)c2cccc(-n3cc(-c4ccc5nonc5c4)nn3)c2)on1 [7{2,21,60}]
3 | 1.18 | 56.77 | 1.14 | 57.24 | 1.7 µM | 7.13 µM | 54.35 | 51.97 | 0.03 | – | < 10 | 7.1 | < 10 | -2.55 | – | Cc1cc(C(=O)NS(=O)(=O)c2ccc(-c3cn(CCN(C)Cc4cccc(F)c4)nn3)cc2)ccn1 [4{16,7,28}]
4 | – | 56.80 | 1.17 | 56.98 | 0.2 µM | 1.1 µM and 1.11 µM | 51.10 | 49.58 | -3.22 | – | < 10 | – | < 10 | -4.95 | 0.92 | COCC(=O)NS(=O)(=O)c1ccc(-c2cn(CCN(C)Cc3cccc(F)c3)nn2)cc1 [4{16,7,19}]
